The numbers were not newly measured in patent publication US20210199674A1, “TREATMENT METHOD, ANALYZING DEVICE, AND SURFACE TREATING LIQUID” (ARKRAY, Inc., priority 2019, published 2021), which cites them from elsewhere.

For this series the following is noted: for acid dissociation constant pKa1: first acidic proton dissociates; for acid dissociation constant pKa4: fourth acidic proton dissociates; for acid dissociation constant pKa2: second acidic proton dissociates; for acid dissociation constant pKa3: third acidic proton dissociates.

On to `O=P(O)(O)CP(=O)(O)O` [methylene diphosphonate], for which the “acid dissociation constant pKa1” value is listed as 1.43, the “acid dissociation constant pKa4” value was 10.96, the “acid dissociation constant pKa2” value is 3.05 and the “acid dissociation constant pKa3” value is listed as 7.35.

For the compound `O=P(O)(O)OP(=O)(O)O` [pyrophosphoric acid], the “acid dissociation constant pKa1” value is listed as 0.9, the “acid dissociation constant pKa4” value was 9.4, the “acid dissociation constant pKa2” value is recorded as 2.0 and the “acid dissociation constant pKa3” value is 6.6.
